Results: PubChem BioAssay (NCI)
Where “and” joins values, the source holds several entries; their conditions need not be identical. Equal values may be shown once.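 Interpolation was linear, between the two tested concentrations surrounding the appropriate level; five concentrations were tested over 48 hours in 96-well plates. GI50 = concentration required for 50% inhibition of growth. The concentration for full growth arrest is given as TGI.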 Where a SMILES comes first, the peptide text is derived from it. [ ]: non-standard residue; d: D form. pGlu = O=C1CC[CH](C(=O)O)N1

Tests used:
Test in all cases: growth of human tumour cells (NCI), 48 h
RXF 393 renal = tested on: RXF 393 renal
CAKI-1 renal = tested on: CAKI-1 renal
HCC-2998 colon = tested on: HCC-2998 colon
SK-MEL-28 melanoma = tested on: SK-MEL-28 melanoma
SNB-75 CNS = tested on: SNB-75 CNS
SF-268 CNS = tested on: SF-268 CNS
OVCAR-4 ovarian = tested on: OVCAR-4 ovarian
KM12 colon = tested on: KM12 colon
UO-31 renal = tested on: UO-31 renal
ACHN renal = tested on: ACHN renal

Row | Structure (SMILES) | TGI (RXF 393 renal) [µM] | TGI (CAKI-1 renal) [µM] | TGI (HCC-2998 colon) [µM] | TGI (SK-MEL-28 melanoma) | TGI (SNB-75 CNS) | TGI (SF-268 CNS) | TGI (OVCAR-4 ovarian) | TGI (KM12 colon) | TGI (UO-31 renal) | TGI (ACHN renal) [µM] | GI50 (RXF 393 renal) [µM] | GI50 (SNB-75 CNS) [µM] | GI50 (UO-31 renal) [µM] | GI50 (SF-268 CNS) [µM] | GI50 (KM12 colon) [µM]
1 | CCOC(=O)c1nc2cc(C(F)(F)F)ccc2nc1Nc1ccc(F)cc1 | > 100 | > 100 | > 100 | > 100 µM | > 100 µM | > 100 µM | 86.1 µM | > 100 µM | – | – | – | – | – | – | –
2 | C=CCCC(On1c(-c2ccc(Cl)cc2)csc1=S)c1ccccc1 (configuration not stated) | > 100 | > 100 | – | > 100 µM | – | > 100 µM | > 100 µM | > 100 µM | > 100 µM | > 100 | – | – | – | – | –
3 | CC1(C)OCC(COC(=O)NCn2cc(-c3ccccc3)nn2)O1 (configuration not stated) | – | > 100 | > 100 | > 100 µM | > 100 µM | > 100 µM | > 100 µM | > 100 µM | – | > 100 | – | – | – | – | –
4 | COc1c(-c2cccs2)oc2c(CC(=O)O)cccc2c1=O | > 100 | > 100 | > 100 | – | – | – | – | – | 48.9 µM | – | – | – | – | – | –
5 | C=C1C(=O)O[C@@H]2OC3(C)CCC4C(C)CCC1C42OO3 (some centres not stated) | 9.65 | 5.95 | 25.9 | 25.1 µM and 23.9 µM | 25.9 µM and 7.74 µM | 18.1 µM and 11.6 µM | 32.4 µM and 26 µM | 9.02 µM and 16.4 µM | 17.5 µM and 22.1 µM | – | 3.31 | 13.1 | 4.57 | 4.56 | 2.66
6 | COc1ccc(-c2nnc(-c3ccncc3)o2)cc1 | > 100 | > 100 | – | > 100 µM | > 100 µM | > 100 µM | > 100 µM | – | > 100 µM | > 100 | – | – | – | – | –
7 | NC(=O)CCC(NC(=O)c1cccc2c(=O)c3ccccc3[nH]c12)C(=O)O (configuration not stated) | – | – | – | > 100 µM | > 100 µM | > 100 µM | > 100 µM | > 100 µM | > 100 µM | > 100 | – | – | – | – | –
8 | CC(NC(=O)C(Cc1cnc[nH]1)NC(=O)C1CCC(=O)N1)C(N)=O (stereo not drawn) ([pGlu]-His-Ala-NH2; configuration not given here) | > 100 | – | > 100 | > 100 µM | > 100 µM | > 100 µM | – | > 100 µM | > 100 µM | > 100 | – | – | – | – | –
9 | COc1cc2c(cc1OC(=O)c1cc3ccccc3[nH]1)N=C[C@@H]1CCCN1C2=O | 0.36 | 13.8 | 1.12 | 2.21 µM | 7.02 µM | > 22.2 µM | 2.15 µM | 3.15 µM | – | 13 | – | – | – | – | –
10 | CC(C)(C)c1cc(/C=C/C(=O)CC(=O)/C=C/c2cc(C(C)(C)C)c(O)c(C(C)(C)C)c2)cc(C(C)(C)C)c1O | > 50 | – | – | > 50 µM | > 50 µM | > 50 µM | > 50 µM | > 50 µM | > 50 µM | > 50 | – | – | – | – | –
11 | COC(=O)c1c(O)ccc2c1c1c(n2Cc2ccccn2)C(=O)c2ccccc2C1=O | > 100 | > 100 | 35 | 99.2 µM | – | > 100 µM | – | > 100 µM | > 100 µM | 58.1 | – | – | – | – | –
12 | COc1cccc2c1-c1c(OC)cccc1SS2 | 63.6 | > 100 | 49.3 | 79.4 µM | – | 80 µM | 90.5 µM | > 100 µM | > 100 µM | > 100 | – | – | – | – | –
13 | COc1nc2ccc(CNc3ccc(C(=O)O)cc3)cc2nc1OC | > 10 | > 10 | > 10 | > 10 µM | > 10 µM | > 10 µM | > 10 µM | > 10 µM | – | > 10 | – | – | – | – | –
14 | COc1cc([C@@H]2c3cc4c(cc3[C@@H](N=Cc3ccc(C(=O)O[C@@H](C(=O)O[C@H]5C[C@@]6(O)[C@@H](OC(=O)c7ccccc7)[C@@H]7[C@]8(OC(C)=O)CO[C@@H]8C[C@H](O)[C@@]7(C)C(=O)[C@H](OC(C)=O)C(=C5C)C6(C)C)[C@@H](NC(=O)c5ccccc5)c5ccccc5)cc3)[C@H]3COC(=O)[C@H]23)OCO4)cc(OC)c1O | > 31.1 | > 50 | 2.92 | > 50 µM | – | > 50 µM | > 50 µM | > 50 µM | – | > 50 | – | – | – | – | –
15 | CCC/C(Cl)=N\OC(=O)Nc1ccc(F)c([N+](=O)[O-])c1 | – | 15.5 | 31.3 | 34.2 µM | 33 µM | 29.2 µM | 28.9 µM | 32.7 µM | 26.6 µM | 18.1 | – | – | – | – | –
16 | COc1cc(/C=C2\N=C(C)N(n3c(-c4ccccc4)nc4ccccc4c3=O)C2=O)cc(OC)c1OC | – | > 100 | > 100 | > 100 µM | > 100 µM | > 100 µM | – | > 100 µM | > 100 µM | > 100 | – | – | – | – | –
17 | O=S(=O)(O)c1cc(Nc2ccnc3ccccc23)c2c(S(=O)(=O)O)cc(S(=O)(=O)O)cc2c1 | > 100 | > 100 | > 100 | > 100 µM | > 100 µM | > 100 µM | > 100 µM | > 100 µM | > 100 µM | – | – | – | – | – | –
18 | COc1ccc(S(=O)(=O)Nc2ccc(-c3csc(N4C(=O)/C(=C/c5ccccc5)N=C4c4ccccc4)n3)cc2)cc1Cl | 73.3 | > 100 | – | > 100 µM | > 100 µM | > 100 µM | 99.4 µM | > 100 µM | 34.1 µM | > 100 | – | – | – | – | –
19 | C=CC[C@@H]1C=C[C@@H](C(=O)OC)n2c(=O)n(-c3ccccc3)c(=O)n21 | – | > 100 | > 100 | > 100 µM | > 100 µM | > 100 µM | > 100 µM | > 100 µM | > 100 µM | > 100 | – | – | – | – | –
20 | CN1CCN(/C(N)=C(\C#N)C(=O)Nc2ccccc2)CC1 | – | > 100 | > 100 | > 100 µM | > 100 µM | – | – | > 100 µM | > 100 µM | > 100 | – | – | – | – | –
21 | COc1ccc2c(c1)CC1(O)COc3cc(OC)ccc3C1O2 (configuration not stated) | – | > 100 | > 100 | – | – | > 100 µM | > 100 µM | > 100 µM | > 100 µM | > 100 | – | – | – | – | –
22 | c1ccc(CCN2CCN=C2Cc2ccccc2)cc1 | > 100 | – | 38.2 | > 100 µM | > 100 µM | > 100 µM | > 100 µM | > 100 µM | > 100 µM | > 100 | – | – | – | – | –
23 | CN(C)CCCNc1cnc2cc3ccccc3cc2n1 | 50.2 | 74.4 | 35.1 | 81.5 µM | 70.6 µM | 77.1 µM | 91.4 µM | 47.4 µM | – | > 100 | – | – | – | – | –
